Test results reported in the NIST ThermoML archive (doi:10.1021/je800356x).

Assay: molar heat capacity at constant pressure
Settings: 101.33 kPa, Liquid, Small sample (50 mg) DSC

OCCO [1,2-ethanediol]
Settings	molar heat capacity at constant pressure [J/K/mol]
293.15 K	148.1
294.65 K	148.57
296.15 K	149.05
297.65 K	149.53
298.15 K	149.69
299.15 K	150.01
300.65 K	150.48
302.15 K	150.96
303.65 K	151.44
305.15 K	151.92
306.65 K	152.4
308.15 K	152.88
309.65 K	153.36
311.15 K	153.83
312.65 K	154.31
314.15 K	154.79
315.65 K	155.27
317.15 K	155.75
318.65 K	156.23
320.15 K	156.71
321.65 K	157.19
323.15 K	157.67
324.65 K	158.15
326.15 K	158.63
327.65 K	159.11
329.15 K	159.6
330.65 K	160.08
332.15 K	160.56
333.65 K	161.04
335.15 K	161.52
336.65 K	162
338.15 K	162.49
339.65 K	162.97
341.15 K	163.45
342.65 K	163.93
344.15 K	164.42
345.65 K	164.9
347.15 K	165.38
348.65 K	165.86
350.15 K	166.35
351.65 K	166.83
353.15 K	167.32

OCCCCO [1,4-butanediol]
Settings	molar heat capacity at constant pressure [J/K/mol]
293.15 K	200.51
294.65 K	201.33
296.15 K	202.16
297.65 K	202.99
298.15 K	203.27
299.15 K	203.82
300.65 K	204.67
302.15 K	205.51
303.65 K	206.36
305.15 K	207.22
306.65 K	208.08
308.15 K	208.95
309.65 K	209.82
311.15 K	210.7
312.65 K	211.58
314.15 K	212.47
315.65 K	213.36
317.15 K	214.26
318.65 K	215.17
320.15 K	216.08
321.65 K	216.99
323.15 K	217.91
324.65 K	218.83
326.15 K	219.76
327.65 K	220.7
329.15 K	221.64
330.65 K	222.58
332.15 K	223.53
333.65 K	224.49
335.15 K	225.45
336.65 K	226.41
338.15 K	227.38
339.65 K	228.36
341.15 K	229.34
342.65 K	230.33
344.15 K	231.32
345.65 K	232.32
347.15 K	233.32
348.65 K	234.32
350.15 K	235.34
351.65 K	236.35
353.15 K	237.38

OCCCCCO [1,5-pentanediol]
Settings	molar heat capacity at constant pressure [J/K/mol]
293.15 K	229.04
294.65 K	230.06
296.15 K	231.1
297.65 K	232.14
298.15 K	232.49
299.15 K	233.19
300.65 K	234.25
302.15 K	235.31
303.65 K	236.39
305.15 K	237.47
306.65 K	238.56
308.15 K	239.66
309.65 K	240.77
311.15 K	241.89
312.65 K	243.01
314.15 K	244.14
315.65 K	245.28
317.15 K	246.43
318.65 K	247.59
320.15 K	248.76
321.65 K	249.93
323.15 K	251.11
324.65 K	252.3
326.15 K	253.5
327.65 K	254.7
329.15 K	255.92
330.65 K	257.14
332.15 K	258.37
333.65 K	259.61
335.15 K	260.86
336.65 K	262.11
338.15 K	263.38
339.65 K	264.65
341.15 K	265.93
342.65 K	267.22
344.15 K	268.51
345.65 K	269.82
347.15 K	271.13
348.65 K	272.45
350.15 K	273.78
351.65 K	275.12
353.15 K	276.46

OCCCCCCO [1,6-hexanediol]
Settings	molar heat capacity at constant pressure [J/K/mol]
318.65 K	282.66
320.15 K	284.25
321.65 K	285.84
323.15 K	287.42
324.65 K	288.99
326.15 K	290.55
327.65 K	292.12
329.15 K	293.67
330.65 K	295.22
332.15 K	296.76
333.65 K	298.3
335.15 K	299.83
336.65 K	301.36
338.15 K	302.88
339.65 K	304.4
341.15 K	305.91
342.65 K	307.41
344.15 K	308.91
345.65 K	310.4
347.15 K	311.88
348.65 K	313.36
350.15 K	314.84
351.65 K	316.31
353.15 K	317.77

OCCCCCCCO [1,7-heptanediol]
Settings	molar heat capacity at constant pressure [J/K/mol]
293.15 K	292.06
294.65 K	293.4
296.15 K	294.75
297.65 K	296.11
299.15 K	297.48
300.65 K	298.87
302.15 K	300.26
303.65 K	301.67
305.15 K	303.09
306.65 K	304.51
308.15 K	305.95
309.65 K	307.41
311.15 K	308.87
312.65 K	310.34
314.15 K	311.83
315.65 K	313.33
317.15 K	314.83
318.65 K	316.35
320.15 K	317.88
321.65 K	319.43
323.15 K	320.98
324.65 K	322.54
326.15 K	324.12
327.65 K	325.71
329.15 K	327.31
330.65 K	328
332.15 K	330.54
333.65 K	332.17
335.15 K	333.81
336.65 K	335.47
338.15 K	337.13
339.65 K	338.81
341.15 K	340.5
342.65 K	342.2
344.15 K	343.91
345.65 K	345.63
347.15 K	347.37
348.65 K	349.11
350.15 K	350.87
351.65 K	352.64
353.15 K	354.42

OCCCCCCCCO [1,8-octanediol]
Settings	molar heat capacity at constant pressure [J/K/mol]
333.65 K	371.35
335.15 K	373.24
336.65 K	375.13
338.15 K	377.03
339.65 K	378.93
341.15 K	380.83
342.65 K	382.74
344.15 K	384.65
345.65 K	386.56
347.15 K	388.48
348.65 K	390.4
350.15 K	392.32
351.65 K	394.24
353.15 K	396.17

OCCCCCCCCCO [1,9-nonanediol]
Settings	molar heat capacity at constant pressure [J/K/mol]
318.65 K	389.02
320.15 K	391.15
321.65 K	393.27
323.15 K	395.39
324.65 K	397.51
326.15 K	399.62
327.65 K	401.73
329.15 K	403.84
330.65 K	405.94
332.15 K	408.03
333.65 K	410.12
335.15 K	412.21
336.65 K	414.3
338.15 K	416.38
339.65 K	418.45
341.15 K	420.52
342.65 K	422.59
344.15 K	424.66
345.65 K	426.72
347.15 K	428.77
348.65 K	430.82
350.15 K	432.87
351.65 K	434.92
353.15 K	436.95

OCCCO [propan-1,3-diol]
Settings	molar heat capacity at constant pressure [J/K/mol]
293.15 K	173.4
294.65 K	174.11
296.15 K	174.83
297.65 K	175.54
298.15 K	175.78
299.15 K	176.26
300.65 K	176.98
302.15 K	177.7
303.65 K	178.42
305.15 K	179.15
306.65 K	179.87
308.15 K	180.59
309.65 K	181.32
311.15 K	182.05
312.65 K	182.78
314.15 K	183.51
315.65 K	184.24
317.15 K	184.97
318.65 K	185.7
320.15 K	186.44
321.65 K	187.17
323.15 K	187.91
324.65 K	188.65
326.15 K	189.38
327.65 K	190.12
329.15 K	190.87
330.65 K	191.61
332.15 K	192.35
333.65 K	193.1
335.15 K	193.84
336.65 K	194.59
338.15 K	195.34
339.65 K	196.09
341.15 K	196.84
342.65 K	197.59
344.15 K	198.34
345.65 K	199.1
347.15 K	199.85
348.65 K	200.61
350.15 K	201.37
351.65 K	202.13
353.15 K	202.89
